From article PMC5360270 (Journal of medicinal chemistry, 2016)

What was measured:
Assay type in all cases: cell-based
HIV-1B = assay: Antiviral p24 assay in MT-4 cells, multi-drug resistant variant HIV-1B; conditions: 50 TCID50 HIV-1B (multi-drug resistant)
HIV-1C = assay: Antiviral p24 assay in MT-4 cells, multi-drug resistant variant HIV-1C; conditions: 50 TCID50 HIV-1C (multi-drug resistant)
HIV-1DRV^RP20 = assay: Antiviral p24 assay in MT-4 cells, multi-drug resistant variant HIV-1DRVRP20; conditions: 50 TCID50 HIV-1DRV^RP20 (multi-drug resistant)
HIV-1NL4-3 = assay: Antiviral p24 assay in MT-4 cells, wild-type HIV-1NL4-3; conditions: 50 TCID50 wild-type HIV-1NL4-3, p24 assay
HIV-1LAI = assay: Antiviral assay in MT-2 cells exposed to HIV-1LAI, MTT assay; conditions: Human immunodeficiency virus 1, MT2

Structure (SMILES) | Mean IC50 ± SD (HIV-1B) | Mean IC50 ± SD (HIV-1C) | Mean IC50 ± SD (HIV-1DRV^RP20) | Mean IC50 ± SD (HIV-1NL4-3) | IC50 (HIV-1LAI)
COc1ccc(S(=O)(=O)N(CC(C)C)C[C@@H](O)[C@H](CC23CC4CC(CC(C4)C2)C3)NC(=O)O[C@H]2CCOC2)cc1 [15a, (S)-Tetrahydrofuran-3-yl ((2S,3R)-1-((1s,3R)-adamantan-1-yl)-3-hydroxy-4-((N-isobutyl-4-methoxyphenyl)sulfonamido)butan-2-yl)carbamate] | did not exhibit appreciable antiviral activity | did not exhibit appreciable antiviral activity | did not exhibit appreciable antiviral activity |  | 
COc1ccc(S(=O)(=O)N(CC(C)C)C[C@@H](O)[C@H](CC23CC4CC(CC(C4)C2)C3)NC(=O)O[C@H]2CO[C@H]3OCC[C@H]32)cc1 [15d, (3R,3aS,6aR)-Hexahydrofuro[2,3-b]furan-3-yl ((2S,3R)-1-((1s,3R)-adamantan-1-yl)-3-hydroxy-4-((N-isobutyl-4-methoxyphenyl)sulfonamido)butan-2-yl)carbamate] | did not show any appreciable antiviral activity |  | did not show any appreciable antiviral activity | low nanomolar | 
CC(C)CN(C[C@@H](O)[C@H](Cc1ccccc1)NC(=O)O[C@H]1CO[C@H]2OCC[C@H]21)S(=O)(=O)c1ccc(N)cc1 [Darunavir, darunavir] |  |  |  |  | 3 nM
